IC50 and inhibition data for one compound are collected here from patent US9567302B2, “Carbamate compounds and of making and using same” (Abide Therapeutics, Inc., priority 2012, dated 2017).

A value given as a limit tells only on which side of the number the result lay.

What is called IC50 is the concentration that inhibits the measured activity by half. One may read the inhibition as how much of the control response was suppressed.

One test deals with T1, hMAGL (Homo sapiens, UniProt Q99685).
T1 construct: expressed in transfected cells; host or cells: HEK293T
T1 sequence (Q99685 1-303): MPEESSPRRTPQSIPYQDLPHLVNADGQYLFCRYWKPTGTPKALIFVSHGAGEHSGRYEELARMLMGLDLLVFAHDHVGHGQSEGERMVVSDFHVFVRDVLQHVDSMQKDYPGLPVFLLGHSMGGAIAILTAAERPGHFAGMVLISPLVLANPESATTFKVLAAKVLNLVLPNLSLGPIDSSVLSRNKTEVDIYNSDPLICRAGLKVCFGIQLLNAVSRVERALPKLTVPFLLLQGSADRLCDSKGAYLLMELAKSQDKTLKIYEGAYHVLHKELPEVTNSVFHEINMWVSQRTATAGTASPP
Nature of the test: Competitive ABPP with human MAGL recombinantly expressed in HEK293T cells. In kind it is biochemical. The following applies: Table 1; hMAGL-HEK293T cell lysates. Here is the method:
(§1) Proteomes (mouse brain membrane fraction or cell lysates) (50 μL, 1.0 mg/ml total protein concentration) were preincubated with varying concentrations of inhibitors at 37° C. After 30 min, FP-Rh (1.0 μL, 50 μM in DMSO) was added and the mixture was incubated for another 30 min at 37° C. Reactions were quenched with SDS loading buffer (50 μL—4×) and run on SDS-PAGE.
Recombinant Expression of Human MAGL in HEK293T Cells.
Cell lysates were diluted with mock proteomes for use in competitive ABPP experiments.

For test [1], the target named is T2, MAGL (Mus musculus, UniProt O35678).
T2 sequence (O35678 1-303): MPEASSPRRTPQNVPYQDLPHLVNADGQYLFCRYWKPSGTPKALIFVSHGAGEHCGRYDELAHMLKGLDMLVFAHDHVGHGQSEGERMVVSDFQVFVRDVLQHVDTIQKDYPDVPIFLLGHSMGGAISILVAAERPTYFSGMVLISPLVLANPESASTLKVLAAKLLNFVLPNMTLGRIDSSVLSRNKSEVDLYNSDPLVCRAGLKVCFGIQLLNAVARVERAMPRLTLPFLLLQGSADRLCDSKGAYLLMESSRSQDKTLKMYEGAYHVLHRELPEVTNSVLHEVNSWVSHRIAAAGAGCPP
Nature of the test: In vitro competitive activity-based protein profiling (FP-Rh), mouse MAGL. In kind it is biochemical. More on the design: from tissue; host or cells: mouse brain membrane fraction. As to conditions: Table 1, mouse proteome, 30 min preincubation at 37° C. Here is the method:
(§2) In Vitro Competitive Activity-Based Protein Profiling.
as §1

The next test has as its target T3, FAAH (Mus musculus, UniProt O08914).
T3 sequence (O08914 1-579): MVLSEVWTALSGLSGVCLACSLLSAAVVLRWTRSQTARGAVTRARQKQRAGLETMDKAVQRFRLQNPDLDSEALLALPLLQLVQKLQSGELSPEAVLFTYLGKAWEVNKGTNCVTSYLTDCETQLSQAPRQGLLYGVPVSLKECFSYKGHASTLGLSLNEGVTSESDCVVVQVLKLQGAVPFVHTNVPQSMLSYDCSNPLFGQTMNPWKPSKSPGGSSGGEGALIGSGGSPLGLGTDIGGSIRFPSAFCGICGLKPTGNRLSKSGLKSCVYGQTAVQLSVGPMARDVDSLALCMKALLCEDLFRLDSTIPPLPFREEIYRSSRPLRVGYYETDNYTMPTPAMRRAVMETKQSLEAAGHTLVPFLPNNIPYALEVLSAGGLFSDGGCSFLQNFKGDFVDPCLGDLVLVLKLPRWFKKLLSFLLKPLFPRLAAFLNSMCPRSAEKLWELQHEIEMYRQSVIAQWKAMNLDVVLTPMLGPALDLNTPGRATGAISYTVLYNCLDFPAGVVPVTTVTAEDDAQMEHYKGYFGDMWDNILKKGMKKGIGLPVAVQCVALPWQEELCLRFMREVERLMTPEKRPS
Description: In vitro competitive activity-based protein profiling (FP-Rh), mouse FAAH. The following applies: Table 1, mouse proteome, 30 min preincubation at 37° C. More on the design: from tissue; host or cells: mouse brain membrane fraction. Type of test: biochemical. Here is the method:
as §2, §1

The target of a further test is T4, ABHD6 (Mus musculus, UniProt Q8R2Y0).
T4 sequence (Q8R2Y0 1-336): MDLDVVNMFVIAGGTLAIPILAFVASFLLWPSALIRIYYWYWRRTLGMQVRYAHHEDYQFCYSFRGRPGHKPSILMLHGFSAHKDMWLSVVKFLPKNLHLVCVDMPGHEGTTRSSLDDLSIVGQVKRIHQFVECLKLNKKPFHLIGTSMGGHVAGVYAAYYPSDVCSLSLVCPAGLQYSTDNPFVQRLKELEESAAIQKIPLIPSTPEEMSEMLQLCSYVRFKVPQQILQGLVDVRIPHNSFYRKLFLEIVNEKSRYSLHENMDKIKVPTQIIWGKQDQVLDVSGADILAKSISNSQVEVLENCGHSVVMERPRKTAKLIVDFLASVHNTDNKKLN
Description: In vitro competitive activity-based protein profiling (FP-Rh), mouse ABHD6. Type of test: biochemical. The following applies: Table 1, mouse proteome, 30 min preincubation at 37° C. Set-up: from tissue; host or cells: mouse brain membrane fraction. Here is the method:
as §2, §1

In test [2] the target is T2, MAGL. Description: Mouse brain MAGL inhibition in proteomes from inhibitor treated mice (oral gavage). The following applies: 20 mg/kg, p.o., C57Bl/6J mice, brain proteome 4 h following administration. Type of test: in vivo. Set-up: from tissue; host or cells: mouse brain membrane fraction. Here is the method:
as §1
Preparation of Mouse Brain Proteomes from Inhibitor Treated Mice.
Inhibitors were administered to wild-type C57B1/6J by oral gavage in a vehicle of polyethylene glycol.

Consider `O=C(ON1C(=O)CCC1=O)N1CCN(C(c2ccc(Br)cc2)c2ccc(Br)cc2)CC1` [Example 3, 2,5-Dioxopyrrolidin-1-yl 4-[bis(4-bromophenyl)methyl]piperazine-1-carboxylate], for which the IC50 at hMAGL was below 100 nM; on MAGL [1], below 100 nM; on FAAH, above 10000 nM; at ABHD6 it was 100 to 1000 nM. Also, the inhibition at 20 mg/kg at MAGL [2] is above 95%.
